Like-named read-outs stand apart in the source and are kept apart here.
How the values were obtained:
[1] = system: E. coli UC 51; experiment: standard disc plate assay, zones of inhibition; type: cell-based; conditions: Escherichia coli, 12.5 mm paper discs; for zone of inhibition at 100 µg/mL: UC51, read-out: Zones of Inhibition, 0.1 mg/ml; for zone of inhibition at 1000 µg/mL: UC51, read-out: Zones of Inhibition, 1 mg/ml
How it was run: (§1)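 Antibacterial activity was determined in vitro by a standard disc plate assay with 12.5 mm paper discs, scored as zone of inhibition.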

[2] = system: S. aureus UC 80; experiment: standard disc plate assay, zones of inhibition; type: cell-based; conditions: Staphylococcus aureus, 12.5 mm paper discs; for zone of inhibition at 100 µg/mL: UC80, read-out: Zones of Inhibition, 0.1 mg/ml; for zone of inhibition at 1000 µg/mL: UC80, read-out: Zones of Inhibition, 1 mg/ml
How it was run: as §1

Work on `NC[C@H]1O[C@H](O[C@H]2[C@H](O)[C@@H](O)[C@H](N)C[C@@H]2N)[C@H](N)[C@@H](O)[C@@H]1O` [Neamine] yielded a zone of inhibition at 100 µg/mL ([1]; Table I) of 19 mm, a zone of inhibition at 100 µg/mL ([1]; Table II) of 18 mm and a zone of inhibition at 1000 µg/mL ([1]; Table I) of 27 mm. The zone of inhibition at 1000 µg/mL ([1]; Table II) was 25 mm, the zone of inhibition at 100 µg/mL ([2]; Table I) was 20 mm and the zone of inhibition at 100 µg/mL ([2]; Table II) was 18 mm. The zone of inhibition at 1000 µg/mL ([2]; Table I) was 29 mm and the zone of inhibition at 1000 µg/mL ([2]; Table II) was 26 mm.
